Experimental data from patent US10688142B2, “Methods of treatment using a lipid extract of Passiflora seeds concentrated in its unsaponifiable fraction” (Laboratoires Expanscience, priority 2013, dated 2020).
Marks after values point to notes of the source that are not given here.

Columns and labels:
Assay type in all cases: cell-based
[1] = system: human mature adipocytes; experiment: Lipolysis: release of glycerol by encapsulated mature adipocytes; conditions: 10 μM forskoline, 4 hours
Procedure: Human white adipose tissue carries out a fundamental metabolic function by providing the other tissues in the body with energy molecules in the form of fatty acids released by the adipocyte lipolysis process: adipocytes mobilise energy reserves by hydrolysing stored triglycerides to fatty acids and glycerol; the fatty acids thus released into the bloodstream can be used by other tissues for energy purposes. The effect of the Passiflora concentrate on adipocyte lipolysis was evaluated by assay of glycerol released during hydrolysis of the triglycerides stored in human mature adipocytes cultured in 3 dimensions.
Mature adipocytes, derived from biopsies of subcutaneous adipose tissue taken from five donors (normal-weight or overweight) were isolated and encapsulated in peptide gel allowing their survival and biological functionality in culture. The encapsulated mature adipocytes were incubated in the presence of 0.001% or 0.005% Passiflora concentrate, or 10 μM forskoline (standard) for 4 hours.
After incubation, the released glycerol was assayed in the culture medium using an assay kit (Randox), the values obtained were normalised with the amount of DNA evaluated with a kit (Invitrogen).

[2] = system: collagen I; experiment: Expression of dermal matrix components in normal human fibroblasts, real-time quantitative RT-PCR; conditions: TGFβ1 at 5 ng/ml, 24 hours
Procedure: (§1) Normal human dermal fibroblasts were incubated for 24 hours in 1 FCS culture medium in the presence of 0.005% and 0.05% Passiflora concentrate or TGFβ1 at 5 ng/ml (standard). After incubation, the total RNAs were extracted, assayed and retro-transcribed. The gene expression of collagen I and elastin were analysed by real-time quantitative RT-PCR.

[3] = system: elastin; experiment: as above; conditions: TGFβ1 at 5 ng/ml, 24 hours
Procedure: as §1

| Compound | Stimulation (%) of glycerol release [1] | Release of glycerol ([1]; mean of 5 donors, control 1.00) | Collagen I gene expression, percentage increase relative to non-treated control [2] | Collagen I (Relative Quantity) ([2]; control = 1.00) | Elastin gene expression, percentage increase relative to non-treated control [3] | Elastin (Relative Quantity) ([3]; control = 1.00) |
| --- | --- | --- | --- | --- | --- | --- |
| C=C[C@@]1(C)CC(=O)[C@]2(O)[C@@]3(C)[C@@H](O)CCC(C)(C)[C@@H]3[C@H](O)[C@H](OC(C)=O)[C@@]2(C)O1 [Forskoline, forskoline] | +660% ** | 6.60 Arbitrary unit |  |  |  |  |
| TGFβ1: TGFβ1 at 5 ng/ml (standard) in the dermal matrix gene expression test |  |  | +30% ns^ | 1.30 | +40% * | 1.40 |
